# Assay results published in PubChem BioAssay AID1963961 (Molecular Pharmacology Branch, DTP, NCI, 2024).
# pIC50: −log10 of the molar value.
# System: K98450-129-R-PDC multicell spheroids, viability
# Assay: Anticancer human tumor K98450-129-R-PDC patient-derived colon adenocarcinoma cell line growth inhibition [PI3K]
# Details: for pIC50: curve of first compound; for viability, T/C: stronger effect = lower value
# Excerpt: Combinatorial screen of targeted agents with the PI3K inhibitors inavolisib, alpelisib, duvelisib, and copanlisib in multi-cell type tumor spheroids
# A high-throughput screen of multi-cell type tumor spheroids was designed to identify active combinations of targeted small molecules and PI3K pathway inhibitors. Complex spheroids include a stromal component modeled by human endothelial cells (HUVEC) and fibroblasts modeled by human mesenchymal stem cells (MSCs). The concentration ranges selected for each drug and investigational agent were based upon clinically achievable concentrations if the clinical Cmax of the agent was known.
# Compounds. The drugs and investigational agents: inavolisib (NSC800729), alpelisib (NSC765974), duvelisib (NSC772469), copanlisib (NSC816437), ipatasertib (NSC767898), afuresertib (NSC778305), talazoparib (NSC767125), sapanisertib (NSC764658), selumetinib (NSC741078), tovorafenib (DAY101, NSC766906), vemurafenib (NSC761431), ravoxertinib (NSC781343), sotorasib (NSC818433), MRTX1133 (NSC 836407), abemaciclib (NSC 768073), palbociclib (NSC758247), venetoclax (NSC 766270), SY5609 (NSC837396), enzalutamide (NSC755605), and darolutamide (NSC825331), were obtained from the National Cancer Institute (NCI) Developmental Therapeutics Program Chemical Repository. The FDA-approved anticancer drug set is available from the NCI Developmental Therapeutics Program. […] The stock solutions were prepared in dimethyl sulfoxide (DMSO, Sigma-Aldrich, St. Louis, MO, cat. D2650) at 800-fold the tested concentration and stored at -70 degrees C prior to their use. All drugs and investigational agents were tested over a range starting from a high concentration at or near the clinical Cmax and decreasing in half-log increments. If the clinical Cmax for an agent had not been determined, the highest concentration tested was 10 microM.
# Cell Culture. All cells were maintained in an incubator at 37 degrees C and 5% CO2 with 95% humidity. The PDC lines were cultured according to standard operating procedures established by the NCI PDMR (https://pdmr.cancer.gov/sops/default.htm). All PDCs were thawed and cultured in Matrigel-coated flasks prepared with a working solution of 1X Ham's F-12 nutrient mix, without supplementation (Invitrogen, Waltham, MA, cat. 11765054), 100 U/mL penicillin-streptomycin (Invitrogen, cat. 15140122), and 2.5% Matrigel (Corning Inc., Corning, NY, cat. 354248) for the first three passages. The 354836-022-R-J1-PDC, 475296-252-R-J1-PDC, and 997726-040-R-J2-PDC lines were cultured in 6A media, which includes advanced DMEM/F-12 (Thermo Fisher Scientific, cat. 12634028), 10 mM HEPES (Thermo Fisher Scientific, cat. 15630080), 1X GlutaMAX supplement (Thermo Fisher Scientific, cat. 35050061), 0.1 mg/mL primocin (InvivoGen, San Diego, CA, cat. ant-pm-2), 10% defined fetal bovine serum, heat inactivated (HyClone Laboratories Inc., Logan, UT, cat. SH30070.03HI), 50% L-WRN conditioned media (ATCC, cat. CRL-3276), 1.25 mM N-Acetyl-L-cysteine (Sigma-Aldrich, cat. A9165), 10 mM nicotinamide (Sigma-Aldrich, cat. N0636), 1X B-27 supplement (Thermo Fisher Scientific, cat. 17504044), 1X N-2 supplement (Thermo Fisher Scientific, cat. 17502048), and 10 microM Y-27632 dihydrochloride (Tocris Bioscience, Bristol, United Kingdom, cat. 1254). The 624824-186-R-J2-PDC line was cultured in 6C/Colon 1B media, which includes all 6A media components plus 50 ng/mL human EGF recombinant protein (Thermo Fisher Scientific, cat. PHG0311). […]
# [1] = second compound 0.0316 µM, first compound 0.0316 µM
# [2] = second compound 0.0316 µM, first compound 0.1 µM
# [3] = second compound 0.0316 µM, first compound 0.316 µM
# [4] = second compound 0.0316 µM, first compound 1 µM
# [5] = second compound 0.0316 µM, first compound 3.16 µM
# [6] = second compound 0.0316 µM, first compound 10 µM
# [7] = second compound 0.1 µM, first compound 0.0316 µM
# [8] = second compound 0.1 µM, first compound 0.1 µM
# [9] = second compound 0.1 µM, first compound 0.316 µM
# [10] = second compound 0.1 µM, first compound 1 µM
# [11] = second compound 0.1 µM, first compound 3.16 µM
# [12] = second compound 0.1 µM, first compound 10 µM
# [13] = second compound 0.316 µM, first compound 0.0316 µM
# [14] = second compound 0.316 µM, first compound 0.1 µM
# [15] = second compound 0.316 µM, first compound 0.316 µM
# [16] = second compound 0.316 µM, first compound 1 µM
# [17] = second compound 0.316 µM, first compound 3.16 µM
# [18] = second compound 0.316 µM, first compound 10 µM
# [19] = second compound 1 µM, first compound 0.0316 µM
# [20] = second compound 1 µM, first compound 0.1 µM
# [21] = second compound 1 µM, first compound 0.316 µM
# [22] = second compound 1 µM, first compound 1 µM
# [23] = second compound 1 µM, first compound 3.16 µM
# [24] = second compound 1 µM, first compound 10 µM
# 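Note: spheroids exposed to agents for seven days before read-out.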
compound,measurement,setting,value
CNC(=O)c1ccc(N2C(=S)N(c3ccc(C#N)c(C(F)(F)F)c3)C(=O)C2(C)C)cc1F + COc1c(OCCCN2CCOCC2)ccc2c3n(c(=NC(=O)c4cnc(N)nc4)nc12)CCN3,pIC50,second compound 0.00316 µM,< 5.00
same,pIC50,second compound 0.01 µM,< 5.00
same,pIC50,second compound 0.0316 µM,< 5.00
same,pIC50,second compound 0.1 µM,< 5.00
same,pIC50,second compound 0.316 µM,< 5.00
same,pIC50,second compound 1 µM,< 5.00
same,"viability, T/C","second compound 0.00316 µM, first compound 0.0316 µM",108%
same,"viability, T/C","second compound 0.00316 µM, first compound 0.1 µM",102%
same,"viability, T/C","second compound 0.00316 µM, first compound 0.316 µM",88.7%
same,"viability, T/C","second compound 0.00316 µM, first compound 1 µM",97.1%
same,"viability, T/C","second compound 0.00316 µM, first compound 3.16 µM",108%
same,"viability, T/C","second compound 0.00316 µM, first compound 10 µM",101%
same,"viability, T/C","second compound 0.01 µM, first compound 0.0316 µM",98.6%
same,"viability, T/C","second compound 0.01 µM, first compound 0.1 µM",107%
same,"viability, T/C","second compound 0.01 µM, first compound 0.316 µM",80.1%
same,"viability, T/C","second compound 0.01 µM, first compound 1 µM",77.8%
same,"viability, T/C","second compound 0.01 µM, first compound 3.16 µM",100%
same,"viability, T/C","second compound 0.01 µM, first compound 10 µM",98.8%
same,"viability, T/C",[1],96.4%
same,"viability, T/C",[2],96.9%
same,"viability, T/C",[3],84.4%
same,"viability, T/C",[4],81.5%
same,"viability, T/C",[5],95.7%
same,"viability, T/C",[6],68.1%
same,"viability, T/C",[7],67.1%
same,"viability, T/C",[8],83.2%
same,"viability, T/C",[9],72.6%
same,"viability, T/C",[10],77%
same,"viability, T/C",[11],78.7%
same,"viability, T/C",[12],70.1%
same,"viability, T/C",[13],67.4%
same,"viability, T/C",[14],65.6%
same,"viability, T/C",[15],73.5%
same,"viability, T/C",[16],58.5%
same,"viability, T/C",[17],79.1%
same,"viability, T/C",[18],39.8%
same,"viability, T/C",[19],43.6%
same,"viability, T/C",[20],58.4%
same,"viability, T/C",[21],54.2%
same,"viability, T/C",[22],50.1%
same,"viability, T/C",[23],57.2%
same,"viability, T/C",[24],65.5%
CC(Cn1ccc(-c2ccc(C#N)c(Cl)c2)n1)NC(=O)c1cc(C(C)O)[nH]n1 (centres undefined) + Cc1nc(NC(=O)N2CCCC2C(N)=O)sc1-c1ccnc(C(C)(C)C(F)(F)F)c1,pIC50,second compound 0.0316 µM,< 5.00
same,pIC50,second compound 0.1 µM,< 5.00
same,pIC50,second compound 0.316 µM,< 5.00
same,pIC50,second compound 1 µM,< 5.00
same,pIC50,second compound 3.16 µM,< 5.00
same,pIC50,second compound 10 µM,< 5.00
same,"viability, T/C",[1],103%
same,"viability, T/C",[2],98.6%
same,"viability, T/C",[3],107%
same,"viability, T/C",[4],105%
same,"viability, T/C",[5],99.8%
same,"viability, T/C",[6],103%
same,"viability, T/C",[7],108%
same,"viability, T/C",[8],99.3%
same,"viability, T/C",[9],104%
same,"viability, T/C",[10],94.2%
same,"viability, T/C",[11],99.5%
same,"viability, T/C",[12],103%
same,"viability, T/C",[13],104%
same,"viability, T/C",[14],94.4%
same,"viability, T/C",[15],99.3%
same,"viability, T/C",[16],98.6%
same,"viability, T/C",[17],102%
same,"viability, T/C",[18],103%
same,"viability, T/C",[19],86.4%
same,"viability, T/C",[20],101%
same,"viability, T/C",[21],98.3%
same,"viability, T/C",[22],88.8%
same,"viability, T/C",[23],98.2%
same,"viability, T/C",[24],84.8%
same,"viability, T/C","second compound 3.16 µM, first compound 0.0316 µM",85.1%
same,"viability, T/C","second compound 3.16 µM, first compound 0.1 µM",81.4%
same,"viability, T/C","second compound 3.16 µM, first compound 0.316 µM",86.8%
same,"viability, T/C","second compound 3.16 µM, first compound 1 µM",84%
same,"viability, T/C","second compound 3.16 µM, first compound 3.16 µM",94%
same,"viability, T/C","second compound 3.16 µM, first compound 10 µM",85.8%
same,"viability, T/C","second compound 10 µM, first compound 0.0316 µM",75.6%
same,"viability, T/C","second compound 10 µM, first compound 0.1 µM",72.1%
same,"viability, T/C","second compound 10 µM, first compound 0.316 µM",80.3%
same,"viability, T/C","second compound 10 µM, first compound 1 µM",81.1%
same,"viability, T/C","second compound 10 µM, first compound 3.16 µM",80.8%
same,"viability, T/C","second compound 10 µM, first compound 10 µM",74.3%
